Assay results from doi:10.1101/2024.11.03.621781v1 (bioRxiv, 2024).

What was measured:
Format in all cases: cell-based
HeLa cells [1] = test: Autophagy flux assay with Bafilomycin A1, LC3B/LAMP2 double immunofluorescence; conditions: control cells treated with BafA1
HeLa cells [2] = test: LC3B immunofluorescence, autophagy induction; conditions: time-dependent LC3B immunostaining, then return to baseline
HeLa cells [3] = test: LC3B lipidation assay by western blot; conditions: GAPDH loading control

| Structure (SMILES) | autophagosome accumulation (LC3B puncta) in control cells (HeLa cells [1]) | time of peak autophagy induction (HeLa cells [2]) | LC3B-II/LC3B-I ratio (LC3B lipidation) (HeLa cells [3]) |
| --- | --- | --- | --- |
| CO/C1=C\C(C)=C\[C@@H](C)[C@@H](O)[C@@H](C)C/C(C)=C/C=C/[C@H](OC)[C@@H]([C@@H](C)[C@@H](O)[C@H](C)[C@@]2(O)C[C@@H](O)[C@H](C)[C@@H](C(C)C)O2)OC1=O [BafA1, Bafilomycin A1] | marked accumulation of autophagosomes |  |  |
| CO[C@H]1C[C@@H]2CC[C@@H](C)[C@@](O)(O2)C(=O)C(=O)N2CCCC[C@H]2C(=O)O[C@H]([C@H](C)C[C@@H]2CC[C@@H](O)[C@H](OC)C2)CC(=O)[C@H](C)/C=C(\C)[C@@H](O)[C@@H](OC)C(=O)[C@H](C)C[C@H](C)/C=C/C=C/C=C/1C [rapamycin] |  | 90 min | increased LC3B- II/LC3B-I ratio |
